Measured values taken from patent US9073879B2, “Oxazole derivatives useful as modulators of FAAH” (MERCK SHARP & DOHME CORP., priority 2010, dated 2015).

How the values were obtained:
[1] = molecular target: T1, human FAAH (Homo sapiens, UniProt O00519); assay: FAAH whole cell assay (human Whole cell, FAAH_CHO, AAMCA substrate); format: cell-based; conditions: CHO cells expressing human FAAH, whole cell format; read-out: human cell_IC50
T1 construct: The full length FAAH was subcloned into the mammalian expression vector, pcDEF.neo, using XbaI and EcoRI restriction sites; expressed in transfected cells
T1 sequence (O00519 1-579): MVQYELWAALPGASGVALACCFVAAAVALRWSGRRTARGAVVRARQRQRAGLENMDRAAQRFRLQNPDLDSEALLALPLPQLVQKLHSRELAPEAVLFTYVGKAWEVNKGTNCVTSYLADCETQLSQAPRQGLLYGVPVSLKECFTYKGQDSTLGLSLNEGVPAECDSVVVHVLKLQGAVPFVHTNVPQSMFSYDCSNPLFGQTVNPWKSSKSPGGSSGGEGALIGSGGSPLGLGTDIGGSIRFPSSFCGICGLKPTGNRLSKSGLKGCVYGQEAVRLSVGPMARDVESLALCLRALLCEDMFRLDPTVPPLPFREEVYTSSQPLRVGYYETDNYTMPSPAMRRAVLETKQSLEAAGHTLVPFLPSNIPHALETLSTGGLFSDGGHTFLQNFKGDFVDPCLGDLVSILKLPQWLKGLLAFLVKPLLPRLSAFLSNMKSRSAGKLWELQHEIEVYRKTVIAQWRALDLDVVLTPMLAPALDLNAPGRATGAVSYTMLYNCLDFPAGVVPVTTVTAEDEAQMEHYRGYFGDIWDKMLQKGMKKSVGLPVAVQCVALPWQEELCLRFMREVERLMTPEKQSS
From the text: (§1) To assist in assay development stable cell lines for human, murine and rat full length FAAH were developed. Human FAAH cDNA (Accession No: NM_001441.1) was purchased from Origene (Rockville, Md.). The full length FAAH was subcloned into the mammalian expression vector, pcDEF.neo, using XbaI and EcoRI restriction sites and used for stable cell line generation.
Murine (accession number NM_010173) and Rat FAAH (accession number NM_024132) was amplified by reverse transcriptase polymerase chain reaction (RT-PCR) from brain cDNA (BD Biosciences, San Jose, Calif.) using primers 1 and 2 or primers 1 and 3 respectively (see Table). The resulting PCR product was ligated into pCR4 TOPO and DNA sequence confirmed. The full length murine FAAH was subcloned into the mammalian expression vector, pcDEFneo using either EcoRI (murine) or KpnI and EcoRI (rat) restriction sites. Chinese hamster ovary cells (CHO) were transfected following manufacturers protocol (AMAXA). Forty eight hours post transfection, cells were trypsinized and transferred to 96 well plates in Iscove's DMEM media supplemented with 2 mM Glutamine, 10% fetal calf serum, 1 mg/ml geneticin and HT Supplement (0.1 mM sodium hypoxanthine, 0.016 mM thymidine) in order to isolate single clones. Following selection in geneticin, individual clones were selected and FAAH activity was assessed using a whole cell fluorescent anandamide assay, modified from Ramarao et al (2005). Following removal of tissue culture media cells were dislodged following addition of Cellstripper (Mediatech, Inc. Manassas, Va.) and transferred to 96 well black clear bottom assay plate, centrifuged at 1,000 rpm for 3 mins and media removed and replaced with assay buffer (50 mM Tris pH8.0, 1 mM EDTA, 0.1% fatty acid free BSA). The reaction was initiated by addition of fluorescent substrate, AMC Arachidonoyl Amide (Cayman Chemical, Ann Arbor, Mich.) to 1 μM and reaction allowed to proceed for 2 hours at room temperature. Release of fluorescence was monitored in a CytoFluor Multiplate Reader. Cells expressing the highest amount of FAAH activity were selected for study with FAAH inhibitors.
(§2) Assays are performed on either cell lysate or microsome fractions prepared as described or in whole cell format employing either the fluorescent substrate AAMCA (Cayman chemical, Ann Arbor, Mich.) or ^3H-anandamide ([ETHANOLAMINE-1-3H] American Radiolabeled Chemicals; 1 mCi/ml). The cell lysate or microsome assay is performed in black PerkinElmer OptiPlates-384F by adding FAAH_CHO (whole cell (shown as human Whole cell or Human WC), cell lysate (shown as human lysate of human LY) or microsome) in assay buffer (50 mM Phosphate, pH 8.0, 1 mM EDTA, 200 mM KCl, 0.2% glycerol, 0.1% fatty acid free BSA) to each well, followed by either DMSO or compound and allowed to incubate at 22-25° C. for fifteen minutes. AAMCA substrate was used to achieve a final concentration of 1 μM and reaction allowed to proceed at room temperature for 1-3 hours. Fluorescent release as a measure of FAAH activity was monitored by reading the plate in an Envision plate Reader (Ex: 360/40 nM; Em: 460/40 nM). Whole cell assay is conducted with cells harvested after rinsing tissue culture flasks three times with Ca^++Mg^++ free PBS, incubating for 10 min in Enzyme free dissociation media and centrifuging for 5 minutes at 1,000 rpm in table top centrifuge. Cells are resuspended in assay buffer at desired cell number in (4×10^4 cells/assay in 96-well format; 1×10^4 cells/assay in 384-well format) and assayed as described.

[2] = molecular target: T1, human FAAH; assay: FAAH cell lysate assay (human lysate, FAAH_CHO, AAMCA substrate); format: biochemical; conditions: lysate of CHO cells expressing human FAAH; read-out: human lysate_IC50
From the text: as §1
CHO cells expressing FAAH were used to prepare either crude cell lysate or microsome fractions. To harvest cells, tissue culture media was decanted, the monolayer washed three times with Ca^++Mg^++ free PBS and cells recovered after 15 mm in enzyme free dissociation media (Millipore Corp, Billerica, Mass.). Cells were collected by centrifuging at 2000 rpm for 15 min. and the cell pellet re-suspended with 50 mM HEPES (pH 7.4) containing 1 mM EDTA and the protease inhibitors aprotinin (1 mg/ml) and leupeptin (100 μM). The suspension was sonicated at 4° C. and the cell lysate recovered after centrifuging at 12,000×g (14,600 rpm, SS34 rotor) for 20 min at 4° C. to form a crude pellet of cell debris, nuclei, peroxisomes, lysosomes, and mitochondria; the supernatant or cell lysate was used for FAAH enzyme assay. In some cases, microsomes fractions enriched in FAAH were prepared by centrifuging the cell lysate further at 27,000 rpm (100,000×g) in SW28 rotor for 50 minutes at 4° C. The pellet containing FAAH-enriched microsomes was re-suspend in 50 mM HEPES, (pH 7.4) 1 mM EDTA, and any remaining DNA sheared by passage of material through a 23 gauge needle and aliquots of enzyme were store at −80° C. prior to use.
(American Radiolabeled Chemicals; 1 mCi/ml) with FAAH (Life Sciences (1995), 56, 1999-2005 and Journal of Pharmacology and Experimented Therapeutics (1997), 283, 729-734), Analytical. Biochemistry (2003), 318:270-5. In addition, routine assays were performed monitoring hydrolysis of araehidonyl-7-amino-4-methylcoumarin amide (AAMCA) by following increase in fluorescence upon release of 7-amino 4-methyl coumarin (λEX=355 nm, (λEM=460 nm). Analytical. Biochemistry (2005). 343:143-51
as §2

Row | Structure (SMILES) | IC50 [1] [nM] | IC50 [2] [nM]
1 | O=C(O)c1ccc(OCc2nc(-c3ccc(F)cc3)oc2Sc2ccc(Cl)cn2)cc1 [Example B2.11.1, 4-({5-[(5-chloropyridin-2-yl)sulfanyl]-2-(4-fluorophenyl)-1,3-oxazol-4-yl}methoxy)benzoic acid] | 253 | 59
2 | CN(C)C(=O)c1ccc(OCc2nc(-c3ccc(F)cc3)oc2Sc2ccc(Cl)cn2)cc1 [Example B2.11.3, 4-({5-[(5-chloropyridin-2-yl)sulfanyl]-2-(4-fluorophenyl)-1,3-oxazol-4-yl}methoxy)-N,N-dimethylbenzamide] | 1450 | 149
3 | O=C(NCC(F)(F)F)c1ccc(OCc2nc(-c3ccc(F)cc3)oc2Sc2ccc(Cl)cn2)cc1 [Example B2.11.5, 4-({5-[(5-chloropyridin-2-yl)sulfanyl]-2-(4-fluorophenyl)-1,3-oxazol-4-yl}methoxy)-N-(2,2,2-trifluoroethyl)benzamide] | 22 | 5
4 | Cn1ncnc1COCc1nc(-c2ccc(F)cc2)oc1Sc1ccc(Cl)cn1 [Example B2.12, 5-chloro-2-{[2-(4-fluorophenyl)-4-{[(1-methyl-1H-1,2,4-triazol-5-yl)methoxy]methyl}-1,3-oxazol-5-yl]sulfanyl}pyridine] | 2150 | 807
5 | Fc1ccc(-c2nc(COC3CCNCC3)c(Sc3ccc(Cl)cn3)o2)cc1 [Example B2.14, 5-chloro-2-({2-(4-fluorophenyl)-4-[(piperidin-4-yloxy)methyl]-1,3-oxazol-5-yl}sulfanyl)pyridine] | 3360 | 902
6 | Fc1ccc(-c2nc(COC3CCOCC3)c(Sc3ccc(Cl)cn3)o2)cc1 [Example B2.15, 5-chloro-2-({2-(4-fluorophenyl)-4-[(tetrahydro-2H-pyran-4-yloxy)methyl]-1,3-oxazol-5-yl}sulfanyl)pyridine] | 343 | 88
7 | COC(=O)c1ccc(NCc2nc(-c3ccc(F)cc3)oc2Sc2ccc(Cl)cn2)cc1 [Example B5.1, methyl 4-[({5-[(5-chloropyridin-2-yl)sulfanyl]-2-(4-fluorophenyl)-1,3-oxazol-4-yl}methyl)amino]benzoate] | 18 | 3
8 | Fc1ccc(-c2nc(CNc3ccc4[nH]ncc4c3)c(Sc3ccc(Cl)cn3)o2)cc1 [Example B5.6, N-({5-[(5-chloropyridin-2-yl)sulfanyl]-2-(4-fluorophenyl)-1,3-oxazol-4-yl}methyl)-1H-indazol-5-amine] | 38 | 22
9 | CCOC(=O)c1ccc(NCc2nc(-c3ccc(F)cc3)oc2Sc2ccc(Cl)cn2)nc1 [Example B5.7, ethyl 6-[({5-[(5-chloropyridin-2-yl)sulfanyl]-2-(4-fluorophenyl)-1,3-oxazol-4-yl}methyl)amino]pyridine-3-carboxylate] | 24 | 6
10 | CCNC(=O)c1ccc(NCc2nc(-c3ccc(F)cc3)oc2Sc2ccc(Cl)cn2)nc1 [Example B5.8, 6-[({5-[(5-chloropyridin-2-yl)sulfanyl]-2-(4-fluorophenyl)-1,3-oxazol-4-yl}methyl)amino]-N-ethylpyridine-3-carboxamide] | 42 | 17
11 | O[C@H]1CC[C@H](NCc2nc(-c3ccc(F)cc3)oc2Sc2ccc(Cl)cn2)CC1 [Example B5.9, trans-4-[({5-[(5-chloropyridin-2-yl)sulfanyl]-2-(4-fluorophenyl)-1,3-oxazol-4-yl}methyl)amino] cyclohexanol] | 139 | 45
12 | COC(=O)[C@H]1CC[C@H](NCc2nc(-c3ccc(F)cc3)oc2Sc2ccc(Cl)cn2)CC1 [Example B5.10, methyl trans-4-{({5-[(5-chloropyridin-2-yl)sulfanyl]-2-(4-fluorophenyl)-1,3-oxazol-4-yl}methyl)amino] cyclohexanecarboxylate] | 31 | 12

Compounds with a lower IC50 [1], results first:

Row | IC50 [1] [nM] | IC50 [2] [nM] | Structure (SMILES)
13 | 14 | 3 | CCNC(=O)c1ccc(OCc2nc(-c3ccc(F)cc3)oc2Sc2ccc(Cl)cn2)cc1 [Example B2.11.2, 4-({5-[(5-chloropyridin-2-yl)sulfanyl]-2-(4-fluorophenyl)-1,3-oxazol-4-yl}methoxy)-N-ethylbenzamide]
14 | 13 | 2 | COC(=O)c1ccc(OCc2nc(-c3ccc(F)cc3)oc2Sc2ccc(Cl)cn2)cc1 [Example B2.11, Methyl-4-({5-[(5-chloropyridin-2-yl)sulfanyl]-2-(4-fluorophenyl)-1,3-oxazol-4-yl}methoxy)benzoate]
15 | 10 | 4 | CCNC(=O)c1ccc(OCc2nc(-c3ccc(F)cc3)oc2Sc2ccc(Cl)cn2)nc1 [Example B2.16, 6-({5-[(5-chloropyridin-2-yl)sulfanyl]-2-(4-fluorophenyl)-1,3-oxazol-4-yl}methoxy)-N-ethylpyridine-3-carboxamide]
16 | 8 | 3 | CCNC(=O)c1ccc(NCc2nc(-c3ccc(F)cc3)oc2Sc2ccc(Cl)cn2)cc1 [Example B5.4, 4-[({5-[(5-chloropyridin-2-yl)sulfanyl]-2-(4-fluorophenyl)-1,3-oxazol-4-yl}methyl)amino]-N-ethylbenzamide]
17 | 5 | 3 | CNC(=O)c1ccc(OCc2nc(-c3ccc(F)cc3)oc2Sc2ccc(Cl)cn2)cc1 [Example B2.11.4, 4-({5-[(5-chloropyridin-2-yl)sulfanyl]-2-(4-fluorophenyl)-1,3-oxazol-4-yl}methoxy)-N-methylbenzamide]
